Experimental data taken from patent US20230148251A1, “COMPOUND NUTRIENT CAPABLE OF REPAIRING DAMAGED INTESTINES OF PIGELETS AND METHOD OF USING THE SAME” (Sichuan Agricultural University, priority 2021, published 2023).

What was measured:
[1] = test system: low-birth-weight suckling piglets; test: Arginine supplementation: growth performance of low-birth-weight suckling piglets; assay type: in vivo; details: 0.04% arginine in feed vs without
Source text: (§1) Three-day-old suckling piglets with low birth weight were used as experimental animals. They were randomly divided into two treatments, fed with 0.04% and without arginine feed. Each treatment had 8 replicates, and each replicate had 1 piglet. The test period was 21 days to investigate the growth performance of piglets.

[2] = test system: low-birth-weight suckling piglets; test: Arginine supplementation: serum antioxidant enzyme activity and MDA content; assay type: in vivo; details: 0.04% arginine in feed vs without
Source text: as §1, with “days. After the test, the piglet serum was collected” for “days”, “antioxidant capacity” for “growth performance”, “the piglet serum.” for “piglets.”

N=C(N)NCCC[C@H](N)C(=O)O [Arginine Group, arginine]
significantly improve: daily gain of weak piglets (in words) [1] | feed intake of weak piglets (in words) [1] | antioxidant capacity of weak piglets (in words) [2]
